Data from US8518952B2, “6 substituted 2-heterocyclylamino pyrazine compounds as CHK-1 inhibitors” (Pfizer Inc., priority 2008, dated 2013).

Experiments:
[1] = test system: Mia Paca-2 cells; test: Histone H3 (Ser10) phosphorylation ELISA, abrogation of camptothecin-induced G2 arrest (CHK-1 cellular assay); assay type: cell-based; details: camptothecin 8 hrs, then compound with nocodozole 16 hours
Description: The Histone H3 phosphorylation ELISA assay detects cells entering mitosis and represents the primary in vitro cell-based assay used to measure the cellular potency of compounds in abrogating the G2 check point induced by DNA damage in HeLa cells or MiaPaCa cells. The candidate substances were assayed for potency in their ability to inhibit camptothecin-induced G2 arrest, as measured by an increase in Histone H3 phosphorylation on Ser10, a marker of entry into mitosis.
The PathScan Phospho-Histone H3 (Ser10) Sandwich ELISA kit was used (Cell Signaling, #7155) and the assay was performed according to manufacturer recommendations. Tissue culture plates were seeded with HeLa cells or MiaPaCa Cells and allowed to attach overnight. The cells were then treated with camptothecin to induce DNA damage for 8 hrs. Candidate substances or diluent were then added in the presence of nocodozole for 16 hours. Cells were then lysed with buffer from Assay Designs (#80-1114) supplemented with protease inhibitors and frozen overnight. The fresh whole cell lysates were then thawed and added to the ELISA plate with shaking for 3 hours. Between all subsequent steps plates were washed 4 times with PBST. Biotinylated phospho Histone H3 (ser10) detection antibody was added for 1 hour, followed by addition of horseradish peroxidase-linked streptavidin secondary antibody for 1 hour. Color development of the antibody was performed with addition of TMB substrate and incubation for 2 minutes on a plate shaker. Stop solution was added and plates were read with absorbance at 450 nm on a spectrophotometer. EC50 values were calculated by sigmoid curve fitting using a four-parameter analysis.
Under the “Ki” column, data entries in the format of “%” are percent inhibition data where no Ki data is available. Data entry under the “EC50” column with an * are data obtained using Mia Paca-2 cells rather than HeLa cells. Data is not available where noted as n/a.

[2] = biological target: T1, CHK1 (kinase domain) (Homo sapiens, UniProt O14757); test: CHK1 Ki determination, spectrophotometric coupled (pyruvate kinase/lactate dehydrogenase) assay; assay type: biochemical; details: CHK-1 kinase domain; 150 uM ATP, 125 uM Syntide 2
T1 construct: a solution containing 1 nM of CHK1 (kinase domain)
T1 sequence (O14757 9-265 limits assumed): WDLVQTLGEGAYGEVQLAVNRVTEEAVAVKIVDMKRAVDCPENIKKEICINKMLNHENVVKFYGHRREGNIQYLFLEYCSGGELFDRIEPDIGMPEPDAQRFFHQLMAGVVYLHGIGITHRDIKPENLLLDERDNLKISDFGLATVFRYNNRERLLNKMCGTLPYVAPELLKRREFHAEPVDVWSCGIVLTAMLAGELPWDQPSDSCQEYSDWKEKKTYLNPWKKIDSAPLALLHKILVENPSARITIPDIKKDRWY
Summary of the method: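 Ki values, or % inhibition where no Ki was obtained, come from a tight-binding fit that uses active enzyme concentration and the ATP Km. Rates were followed as NADH loss at 340 nm, with ADP production coupled via pyruvate kinase and lactate dehydrogenase. Reactions with ATP (150 uM) and Syntide 2 (125 uM) were started after the CHK1 kinase domain had stood with inhibitor for 15 min.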

[3] = test system: HeLa cells; test: Histone H3 (Ser10) phosphorylation ELISA, abrogation of camptothecin-induced G2 arrest (CHK-1 cellular assay); assay type: cell-based; details: Homo sapiens, HeLa, HeLa cells; camptothecin 8 hrs, then compound with nocodozole 16 hours; read-out: EC50
Summary of the method: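 HeLa cells, or MiaPaCa-2 where marked, received camptothecin for 8 h, then compound with nocodazole for 16 h. Ser10-phosphorylated histone H3 in lysates was measured by ELISA with a biotinylated antibody, streptavidin-HRP and TMB. EC50 came from four-parameter sigmoid fits.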

[4] = Homo sapiens, Mia Paca-2 cells (entries marked *)
[5] = Homo sapiens, MIA PaCa-2, Mia Paca-2 cells (entries marked *)

| SMILES | EC50 [1, 4] [nM] | Ki [2] [nM] | EC50 [1, 5] [nM] | EC50 ([1]; Mia Paca-2 cells (entries marked *)) [nM] | EC50 [3] [nM] |
| --- | --- | --- | --- | --- | --- |
| c1cn2c(-c3cncc(N[C@@H]4CCCNC4)n3)cnc2cn1 [Example 4, 6-Imidazo[1,2-a]pyrazin-3-yl-N-[(3R)-piperidin-3-yl]pyrazin-2-amine] | 92.8 | 7.74 | – | – | – |
| Clc1ccc2ncc(-c3cncc(N[C@@H]4CCCNC4)n3)n2c1 [Example 5, 6-(6-Chloroimidazo[1,2-a]pyridin-3-yl)-N-[(3R)-piperidin-3-yl]pyrazin-2-amine] | – | 2.49 | 18.3 | – | – |
| COc1ccc2ncc(-c3cncc(N[C@@H]4CCCNC4)n3)n2c1 [Example 7, 6-(6-Methoxyimidazo[1,2-a]pyridin-3-yl)-N-[(3R)-piperidin-3-yl]pyrazin-2-amine] | 16.7 | 1.65 | – | – | – |
| FC(F)(F)c1ccc2ncc(-c3cncc(N[C@@H]4CCNC4)n3)n2c1 [Example 13, N-[(3R)-pyrrolidin-3-yl]-6-[6-(trifluoromethyl)imidazo[1,2-a]pyridin-3-yl]pyrazin-2-amine] | 513 | 12.8 | – | – | – |
| C[C@@H]1CNC[C@@H]1Nc1cncc(-c2cnc3ccc(C(C)(C)O)cn23)n1 [Example 14, 2-[3-(6-{[(3R,4R)-4-methylpyrrolidin-3-yl]amino}pyrazin-2-yl)imidazo[1,2-a]pyridin-6-yl]propan-2-ol] | 4210 | 33.6 | – | – | – |
| Cc1ncc(-c2cnc3ccccn23)nc1N[C@@H]1CCCNC1 [Example 16, 6-(imidazo[1,2-a]pyridin-3-yl)-3-methyl-N-[(3R)-piperidin-3-yl]pyrazin-2-amine] | – | 19.4 | 81.1 | – | – |
| COc1cc2c(cn1)ncn2-c1cncc(N[C@@H]2CCCNC2)n1 [Example 17, 6-(6-methoxy-1H-imidazo[4,5-c]pyridin-1-yl)-N-[(3R)-piperidin-3-yl]pyrazin-2-amine] | 59.5 | 6.41 | – | – | – |
| COc1cc2ncn(-c3cncc(N[C@@H]4CCCNC4)n3)c2cn1 [Example 18, 6-(6-methoxy-3H-imidazo[4,5-c]pyridin-3-yl)-N-[(3R)-piperidin-3-yl]pyrazin-2-amine] | 19.1 | 1.23 | – | – | – |
| COc1ccn2c(-c3cncc(N[C@@H]4C5CCN(CC5)[C@@H]4C)n3)cnc2c1 [Example 19, (2R,3R)—N-[6-(7-methoxyimidazo[1,2-a]pyridin-3-yl)pyrazin-2-yl]-2-methyl-1-azabicyclo[2.2.2]octan-3-amine] | 10000 | 167 | – | – | – |
| N#Cc1ncc(N[C@@H]2CCCNC2)nc1-c1cnc2ccccn12 [Example 20, 3-(imidazo[1,2-a]pyridin-3-yl)-5-[(3R)-piperidin-3-ylamino]pyrazine-2-carbonitrile] | – | 930 | 10000 | – | – |
| N#Cc1ccc2c(-c3cncc(N[C@@H]4CCCNC4)n3)cnn2c1 [Example 21, 3-{6-[(3R)-piperidin-3-ylamino]pyrazin-2-yl}pyrazolo[1,5-a]pyridine-6-carbonitrile] | 68.8 | 6.02 | – | – | – |
| N#Cc1ccn2c(-c3cncc(N[C@@H]4CCCNC4)n3)cnc2c1 [Example 24, 3-{6-[(3R)-piperidin-3-ylamino]pyrazin-2-yl}imidazo[1,2-a]pyridine-7-carbonitrile] | – | 6.38 | 178 | – | – |
| CO[C@H]1CCNC[C@@H]1Nc1cncc(-c2cnc3ccccn23)n1 [Example 29, 6-imidazo[1,2-a]pyridin-3-yl-N-[(3S,4S)-4-methoxypiperidin-3-yl]pyrazin-2-amine] | – | 5.51 | – | 86.8 | – |
| COc1ccc2c(-c3cncc(N[C@@H]4CCCNC4)n3)cnn2c1 [Example 33, 6-(6-methoxypyrazolo[1,5-a]pyridin-3-yl)-N-[(3R)-piperidin-3-yl]pyrazin-2-amine] | 7.27 | 1 | – | – | – |
| COc1ccn2c(-c3cncc(N[C@@H]4CCCNC4)n3)cnc2c1 [Example 37, 6-(7-Methoxyimidazo[1,2-a]pyridin-3-yl)-N-[(3R)-piperidin-3-yl]pyrazin-2-amine] | – | 2.03 | 21 | – | – |
| NC(=O)c1ccn2c(-c3cncc(N[C@@H]4CCCNC4)n3)cnc2c1 [Example 86, 3-{6-[(3R)-piperidin-3-ylamino]pyrazin-2-yl}imidazo[1,2-a]pyridine-7-carboxamide] | – | 1.68 | 295 | – | – |
| Fc1ccc2ncc(-c3cncc(N[C@@H]4CCCNC4)n3)n2c1 [Example 87, 6-(6-fluoroimidazo[1,2-a]pyridin-3-yl)-N-[(3R)-piperidin-3-yl]pyrazin-2-amine] | – | 8.63 | 127 | – | – |
| CC(C)c1cn2c(-c3cncc(N[C@@H]4CC[C@@H](C)NC4)n3)cnc2s1 [Example 110, 6-(2-isopropylimidazo[2,1-b][1,3]thiazol-5-yl)-N-[(3R,6R)-6-methylpiperidin-3-yl]pyrazin-2-amine] | 589 | 17.3 | – | – | – |
| Cc1nn2c(-c3cncc(N[C@@H]4CCCNC4)n3)cnc2s1 [Example 120, 6-(2-methylimidazo[2,1-b][1,3,4]thiadiazol-5-yl)-N-[(3R)-piperidin-3-yl]pyrazin-2-amine] | 686 | 34.3 | – | – | – |
| c1ccn2c(-c3cncc(N[C@@H]4C[C@@H]5CN[C@H]4C5)n3)cnc2c1 [Example 123, (1S,4R,6R)-N-(6-imidazo[1,2-a]pyridin-3-ylpyrazin-2-yl)-2-azabicyclo[2.2.1]heptan-6-amine] | 22.9 | 3.22 | – | – | – |
| N#Cc1ccn2c(-c3cncc(N[C@@H]4C[C@@H]5CN[C@H]4C5)n3)cnc2c1 [Example 162, 3-{6-[(1S,4R,6R)-2-azabicyclo[2.2.1]hept-6-ylamino]pyrazin-2-yl}imidazo[1,2-a]pyridine-7-carbonitrile] | 321 | – | – | – | – |
| Cc1ncc(-c2cnc3ccccn23)nc1N[C@@H]1CCNC1 [Example 223, 6-(imidazo[1,2-a]pyridin-3-yl)-3-methyl-N-[(3R)-pyrrolidin-3-yl]pyrazin-2-amine] | – | 68.1 | – | – | 329 |
| COc1ccc2c(c1)ncn2-c1cncc(N[C@@H]2CCCNC2)n1 [Example 224, 6-(5-methoxy-1H-benzimidazol-1-yl)-N-[(3R)-piperidin-3-yl]pyrazin-2-amine] | – | 2.39 | – | – | 30.3 |
| COC[C@@H]1C[C@@H](Nc2cncc(-c3cnc4ccc(Cl)cn34)n2)CN1 [Example 246, 6-(6-chloroimidazo[1,2-a]pyridin-3-yl)-N-[(3R,5S)-5-(methoxymethyl)pyrrolidin-3-yl]pyrazin-2-amine] | – | 35.3 | – | – | 229 |
| FC1(F)CCNC[C@H]1Nc1cncc(-c2cnc3ccccn23)n1 [Example 248, N-[(3R)-4,4-difluoropiperidin-3-yl]-6-(imidazo[1,2-a]pyridin-3-yl)pyrazin-2-amine] | – | 45.3 | – | – | ≥ 10000 |
| FC1(F)CCNC[C@@H]1Nc1cncc(-c2cnc3ccccn23)n1 [Example 249, N-[(3S)-4,4-difluoropiperidin-3-yl]-6-(imidazo[1,2-a]pyridin-3-yl)pyrazin-2-amine] | – | 4.5 | – | – | 32.2 |
| C[C@H]1NCCC[C@H]1Nc1cncc(-c2cnc3cc(C#N)ccn23)n1 [Example 262, 3-(6-{[(2R,3R)-2-methylpiperidin-3-yl]amino}pyrazin-2-yl)imidazo[1,2-a]pyridine-7-carbonitrile] | – | 56.4 | – | – | 303 |
| N#Cc1ncc(N[C@@H]2CCNC2)nc1-c1cnc2ccccn12 [Example 267, 3-(imidazo[1,2-a]pyridin-3-yl)-5-[(3R)-pyrrolidin-3-ylamino]pyrazine-2-carbonitrile] | 10000 | – | – | – | – |
| Cc1ncc(N[C@@H]2CCNC2)nc1-c1cnc2ccccn12 [Example 296, 6-(imidazo[1,2-a]pyridin-3-yl)-5-methyl-N-[(3R)-pyrrolidin-3-yl]pyrazin-2-amine] | – | 334 | – | – | 4080 |
